Assay: xn = mol fraction of the nth substance listed
Conditions: 101.3 kPa, Liquid; for viscosity: Capillary tube (Ostwald / Ubbelohde) method

CC(O)CCO (stereo not given) [1,3-butanediol] + O
Conditions	mass density, 318.15 K [kg/m3]	mass density, 328.15 K [kg/m3]	mass density, 338.15 K [kg/m3]	speed of sound, 318.15 K [m/s]	speed of sound, 328.15 K [m/s]	speed of sound, 338.15 K [m/s]	viscosity, 328.15 K [mPa·s]	viscosity, 338.15 K [mPa·s]
x2 = 0.045	–	980.01	972.67	–	1456.8	1438.1	17.94	11.63
x2 = 0.1445	–	982.02	974.54	–	1473	1452.7	15.5	9.961
x2 = 0.2499	–	984.33	976.7	–	1489.7	1468.1	12.68	8.015
x2 = 0.3526	–	986.62	978.84	–	1509.9	1486.2	9.939	6.116
x2 = 0.4519	–	988.88	980.99	–	1530.8	1506.1	7.454	4.415
x2 = 0.5035	–	990.12	982.18	1566.6	1542.3	1516.1	6.269	3.616
x2 = 0.5563	1001.18	991.47	983.48	1579.1	1554.1	1527.9	5.15	2.874
x2 = 0.6507	1003.55	993.99	985.94	1604.8	1579.6	1552	3.415	1.759
x2 = 0.7518	1005.28	996.11	988.14	1638.6	1612.2	1584.1	1.97	0.895
x2 = 0.8477	1004.06	995.8	988.28	1662.4	1638.8	1611.3	1.028	0.418
x2 = 0.9081	1000.51	993.31	986.44	1652.9	1635.3	1614.1	0.666	0.302
x2 = 0.9152	999.92	992.87	986.1	1649.3	1633	1612.4	0.636	0.299
x2 = 0.9253	999	992.19	985.58	1643	1628.7	1609.7	0.598	0.298
x2 = 0.9355	998	991.44	985	1635.1	1622.5	1606.3	0.565	0.301
x2 = 0.9521	996.21	990.11	983.95	1618.5	1610.6	1597.7	0.525	0.317
x2 = 0.9543	995.96	989.92	983.8	1616	1608.3	1596.6	0.521	0.32
x2 = 0.9597	995.33	989.45	983.44	1609.2	1603.1	1592.9	0.512	0.329
x2 = 0.9699	994.09	988.53	982.72	1594.8	1591.7	1585.4	0.5	0.348
x2 = 0.9804	992.76	987.55	981.96	1577.4	1578.7	1575.5	0.495	0.374
x2 = 0.9901	991.5	986.62	981.25	1558.9	1563.6	1565.5	0.496	0.403
x2 = 0.9924	991.2	986.41	981.09	1554.1	1559.6	1561.7	0.497	0.411
x2 = 0.9955	990.8	986.11	980.87	1547.5	1555	1558.4	0.499	0.422
